Data set [1] has as its system THP-1. Kind of data set: Antiinflammatory activity against human THP-1 cells assessed as inhibition of LPS induced IL-23 production. Type of data set: functional, cell-based.
Data set [2] in a line: Clearance in rat at 1 mg/kg, iv. The class given is ADME, organism-based. The note with it: in vivo.
Data set [3] can be described thus: Antiinflammatory activity against human dendritic cells assessed as inhibition of LPS induced IL-23 production. The class given is functional, cell-based. The note with it: Dendritic cell.
In data set [4] the test system is PAD. Kind of data set: Induction of PAD activity against human A549 cells. Type of data set: toxicity, cell-based.
Data set [5] concerns the target T1, Interleukin-1 receptor-associated kinase 4 (Homo sapiens, UniProt Q9NWZ3).
T1 sequence (Q9NWZ3 whole entry): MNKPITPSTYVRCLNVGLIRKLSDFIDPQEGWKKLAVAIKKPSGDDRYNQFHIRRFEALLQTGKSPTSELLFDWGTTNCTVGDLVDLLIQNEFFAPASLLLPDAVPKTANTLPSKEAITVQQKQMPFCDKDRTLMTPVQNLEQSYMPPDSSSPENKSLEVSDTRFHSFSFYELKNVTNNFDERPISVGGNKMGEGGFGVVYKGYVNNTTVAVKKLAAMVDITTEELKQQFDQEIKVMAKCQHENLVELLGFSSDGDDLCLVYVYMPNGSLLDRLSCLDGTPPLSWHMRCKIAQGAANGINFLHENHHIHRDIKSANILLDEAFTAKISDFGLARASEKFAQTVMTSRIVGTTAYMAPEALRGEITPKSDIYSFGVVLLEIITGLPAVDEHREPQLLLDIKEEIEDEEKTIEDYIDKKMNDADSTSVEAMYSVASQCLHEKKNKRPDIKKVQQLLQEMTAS
The data set is described as follows: Inhibition of IRAK4 (unknown origin).

Data set [6] can be described thus: Oral bioavailability in rat at 5 mg/kg. The note with it: in vivo. The class given is ADME, organism-based.

Structures are written as SMILES.

This passage reports IC50, clearance and bioavailability results from ChEMBL document CHEMBL5104140, “Bicyclic pyrimidine compounds as potent IRAK4 inhibitors” (Bioorg Med Chem Lett, 2022).

What is called IC50 is the midpoint of a concentration-inhibition curve. A word on the clearance: it is the rate of elimination divided by the concentration. Read a low clearance as inefficient removal. A word on the bioavailability: it is the share of a dose that reaches the circulation, judged against a reference dose that is usually intravenous. A higher bioavailability goes with much systemic uptake.

`NC(=O)[C@@H]1[C@H](Nc2nc(Nc3cc(F)cc(C(=O)N4CCCC4)c3)nc3ccsc23)[C@H]2C=C[C@@H]1C2`: the IC50 in data set [1] came out at 60 nM; in data set [3] it was 50 nM; in data set [4], 1800 nM; in data set [5], 2 nM. In data set [2], this compound registered a clearance of 141 mL/min/kg.
With `NC(=O)[C@@H]1[C@H](Nc2nc(Nc3ccnc(N4CCOCC4)c3)nc3ccsc23)[C@H]2C=C[C@@H]1C2`, the IC50 in data set [1] worked out at 80 nM; in data set [3] it was 100 nM; in data set [4], 2700 nM; in data set [5], 10 nM. Besides, in data set [2], the clearance is 132 mL/min/kg. Further, the bioavailability in data set [6] was 12%.
In the case of `NC(=O)[C@@H]1[C@H](Nc2nc(Nc3ccc(C(=O)N4CCCC4)cc3)nc3ccsc23)[C@H]2C=C[C@@H]1C2`, the IC50 amounted to 70 nM in data set [1], 40 nM in data set [3], 560 nM in data set [4] and 10 nM in data set [5].
Regarding `NC(=O)[C@@H]1[C@H](Nc2nc(Nc3ccc(F)c(C(=O)N4CCCC4)c3)nc3ccsc23)[C@H]2C=C[C@@H]1C2`, the IC50 was 270 nM in data set [1], 80 nM in data set [3], 8000 nM in data set [4] and 3 nM in data set [5]. The clearance in data set [2] was found to be 92 mL/min/kg.
As for `Cn1ncc2nc(Nc3cccc(C(=O)N4CCCC4)c3)nc(N[C@H]3[C@@H](C(N)=O)[C@@H]4C=C[C@H]3C4)c21`, the values for the IC50 in data set [1], in data set [4] and in data set [5] were 900 nM, 10000 nM and 4 nM, respectively.
In the case of `Cc1c[nH]c2nc(Nc3cccc(C(=O)N4CCCC4)c3)nc(N[C@H]3[C@@H](C(N)=O)[C@@H]4C=C[C@H]3C4)c12`, the IC50 in data set [1] came to 20 nM; in data set [4], 80 nM; in data set [5] it was 8 nM.
Turning to `NC(=O)[C@@H]1[C@H](Nc2nc(Nc3cccc(C(=O)N4CCCC4)c3)nc3ccccc23)[C@H]2C=C[C@@H]1C2`, the IC50 worked out at 250 nM in data set [1], 490 nM in data set [3], 7500 nM in data set [4] and 5 nM in data set [5]. In addition, the clearance in data set [2] stood at 102 mL/min/kg.
On to `CC(C)n1ccc2nc(Nc3ccc4cnn(C(C)C)c4c3)nc(N[C@H]3[C@@H](C(N)=O)[C@@H]4C=C[C@H]3C4)c21`, for which the IC50 amounted to 420 nM in data set [1], 920 nM in data set [3], 2600 nM in data set [4] and 2.7 nM in data set [5].
Turning to `NC(=O)[C@@H]1[C@H](Nc2nc(Nc3cccc(C(=O)N4CCC(F)C4)c3)nc3ccsc23)[C@H]2C=C[C@@H]1C2` (stereo partly drawn), the IC50 in data set [1] worked out at 90 nM; in data set [3], 40 nM; in data set [4] it was 2700 nM; in data set [5] it was 15 nM. In data set [2], this compound displayed a clearance of 82 mL/min/kg. Also, the bioavailability in data set [6] stood at 3%.
On to `CN1CCN(c2cc(Nc3nc(N[C@H]4[C@@H](C(N)=O)[C@@H]5C=C[C@H]4C5)c4sccc4n3)ccc2F)CC1`, for which the IC50 was 510 nM in data set [1], 2000 nM in data set [4] and 50 nM in data set [5].
`NC(=O)[C@@H]1[C@H](Nc2nc(Nc3ccnc(N4CCCC4)c3)nc3ccsc23)[C@H]2C=C[C@@H]1C2`: the results for the IC50 in data set [1], in data set [4] and in data set [5] were 200 nM, 2600 nM and 206 nM, respectively.
On to `NC(=O)[C@@H]1[C@H](Nc2nc(Nc3ccc(F)c(N4CCOCC4)c3)nc3ccsc23)[C@H]2C=C[C@@H]1C2`, for which the results for the IC50 in data set [1], in data set [4] and in data set [5] were 240 nM, 2500 nM and 95 nM, respectively. The compound further had a clearance in data set [2] of 52 mL/min/kg. This compound returned a bioavailability in data set [6] of 23%.
For `NC(=O)[C@@H]1[C@H](Nc2nc(Nc3cccc(C(=O)N4CCCC4)c3)nc3cc[nH]c23)[C@H]2C=C[C@@H]1C2`, the IC50 is 3800 nM in data set [1], 1400 nM in data set [3], more than 100000 nM in data set [4] and 6 nM in data set [5].
For `NC(=O)[C@@H]1[C@H](Nc2nc(Nc3ccc(C(=O)N4CCOCC4)cc3)nc3ccsc23)[C@H]2C=C[C@@H]1C2` the same measures were 70 nM, 30 nM, 1100 nM and 14 nM.
Consider `CN1CCN(c2cc(F)cc(Nc3nc(N[C@H]4[C@@H](C(N)=O)[C@@H]5C=C[C@H]4C5)c4sccc4n3)c2)CC1`, for which the IC50 in data set [1] turned out to be 80 nM; in data set [3], 100 nM; in data set [4], 1500 nM; in data set [5], 12 nM. In addition, the clearance in data set [2] is 99 mL/min/kg. For the same compound, the bioavailability in data set [6] was found to be 16%.
Regarding `NC(=O)[C@H]1CCC[C@H]1Nc1nc(Nc2cccc(C(=O)N3CCCC3)c2)nc2ccsc12`, the IC50 in data set [1] was 260 nM; in data set [3], 990 nM; in data set [4] it was more than 100000 nM; in data set [5] it was 17 nM. The clearance in data set [2] was determined as 104 mL/min/kg.
For `NC(=O)[C@@H]1[C@H](Nc2nc(Nc3cccc(C(=O)N4CCCC4)c3)nc3ncsc23)[C@H]2C=C[C@@H]1C2` the same measures were 280 nM, 7300 nM, 4000 nM, 3 nM and 105 mL/min/kg.
Regarding `O=C(c1cccc(Nc2nc(NC3C[C@@H]4CC[C@H]3C4)c3sccc3n2)c1)N1CCC(F)C1` (stereo partly drawn), the results for the IC50 in data set [1], in data set [4] and in data set [5] were 4700 nM, 3500 nM and 98 nM, respectively. This compound showed a clearance in data set [2] of 143 mL/min/kg.
In the case of `CN1CCN(c2cc(Nc3nc(N[C@H]4[C@@H](C(N)=O)[C@@H]5C=C[C@H]4C5)c4sccc4n3)ccn2)CC1`, the IC50 turned out to be 80 nM in data set [1], 60 nM in data set [3], 1700 nM in data set [4] and 7 nM in data set [5]. In data set [2], this compound yielded a clearance of 242 mL/min/kg. The compound also had a bioavailability in data set [6] of less than 1%.
`NC(=O)[C@@H]1[C@H](Nc2nc(Nc3cccc(C(=O)N4CCCC4)c3)nc3[nH]ccc23)[C@H]2C=C[C@@H]1C2`: the IC50 in data set [1] was determined as 40 nM; in data set [3], 50 nM; in data set [4], 420 nM; in data set [5], 11 nM. In data set [2], the clearance came to 100 mL/min/kg.
For the compound `NC(=O)[C@@H]1[C@H](Nc2nc(Nc3cccc(C(=O)N4CCCC4)c3)nc3ccoc23)[C@H]2C=C[C@@H]1C2`, the IC50 in data set [1] turned out to be 220 nM; in data set [3] it was 90 nM; in data set [4] it was 5800 nM; in data set [5] it was 3 nM. In addition, the clearance in data set [2] amounted to 101 mL/min/kg.
Take `NC(=O)[C@@H]1[C@H](Nc2nc(Nc3cccc(C(=O)N4CCCC4)c3)nc3[nH]ncc23)[C@H]2C=C[C@@H]1C2`: the IC50 in data set [1] came out at 290 nM; in data set [3], 480 nM; in data set [4], 5800 nM; in data set [5], 4 nM. In addition, the clearance in data set [2] was determined as 124 mL/min/kg.
`CC(C)n1ncc2ccc(Nc3nc(N[C@H]4[C@@H](C(N)=O)[C@@H]5C=C[C@H]4C5)c4c(ccn4C)n3)cc21`: the IC50 in data set [1] was found to be 500 nM; in data set [3], 1300 nM; in data set [4], 3300 nM; in data set [5], 4.1 nM.
With `NC(=O)[C@@H]1[C@H](Nc2nc(Nc3ccc(OCCN4CCCC4)cc3)nc3ccsc23)[C@H]2C=C[C@@H]1C2`, the IC50 in data set [1] was determined as 50 nM; in data set [3], 190 nM; in data set [4], 610 nM; in data set [5] it was 49 nM.
In the case of `NC(=O)[C@@H]1[C@H](Nc2nc(Nc3cccc(C(=O)N4CCOCC4)c3)nc3ccsc23)[C@H]2C=C[C@@H]1C2`, the IC50 in data set [1] was found to be 150 nM; in data set [3], 80 nM; in data set [4], 4900 nM; in data set [5] it was 6 nM. This compound also returned a clearance in data set [2] of 113 mL/min/kg.
Consider `NC(=O)c1ccccc1Nc1nc(Nc2cccc(C(=O)N3CCCC3)c2)nc2ccsc12`, for which the IC50 in data set [1] came out at 240 nM; in data set [3] it was 1500 nM; in data set [4], 6400 nM; in data set [5] it was 19 nM. The compound further had a clearance in data set [2] of 56 mL/min/kg.
In the case of `NC(=O)[C@@H]1[C@H](Nc2nc(Nc3cc(C(=O)N4CCCC4)ccc3F)nc3ccsc23)[C@H]2C=C[C@@H]1C2`, the IC50 is 11000 nM in data set [1], 14000 nM in data set [4] and 711 nM in data set [5].
Turning to `NC(=O)[C@@H]1[C@H](Nc2nc(Nc3cc(F)cc(N4CCOCC4)c3)nc3ncsc23)[C@H]2C=C[C@@H]1C2`, the values for the half-inhibitory concentration (IC50) in data set [1], in data set [4] and in data set [5] were 2600 nM, 7500 nM and 18 nM, respectively.
As to `Cc1n[nH]c2nc(Nc3cc(F)cc(N4CCOCC4)c3)nc(N[C@H]3[C@@H](C(N)=O)[C@@H]4C=C[C@H]3C4)c12`, the results for the IC50 in data set [1], in data set [4] and in data set [5] were 37 nM, 260 nM and 5 nM, respectively. This compound also displayed a clearance in data set [2] of 47 mL/min/kg. The compound also yielded a bioavailability in data set [6] of 7%.
Turning to `NC(=O)[C@@H]1[C@H](Nc2nc(Nc3cccc(C(=O)N4CCCC4)c3)nc3[nH]cnc23)[C@H]2C=C[C@@H]1C2`, the IC50 in data set [1] stood at 200 nM; in data set [3] it was 200 nM; in data set [4], 4000 nM; in data set [5], 5 nM. This compound also came in with a clearance in data set [2] of 180 mL/min/kg.
Turning to `NC(=O)[C@@H]1[C@H](Nc2nc(Nc3cccc(C(=O)N4CCCC4)c3)nc3cn[nH]c23)[C@H]2C=C[C@@H]1C2`, the IC50 in data set [1] was 9400 nM; in data set [4], more than 100000 nM; in data set [5] it was 17 nM.
